Measured values taken from patent US12427157B2, “Methods for treatment of diseases involving acidic or hypoxic diseased tissues” (Cybrexa 1, Inc., priority 2018, dated 2025).
Residues, ends and D or L forms follow the SMILES beside them. *: point of attachment. X10 = Cc1cc(COC(=O)N(C)Cc2ccc(-c3[nH]c4cc(F)cc5c4c3CCNC5=O)cc2)ccc1S*; X16 = C[C@H](COC(=O)N1CCC[C@]1(C)c1nc2c(C(N)=O)cccc2[nH]1)S*; X18 = CNCc1ccc(-c2c3c4c(cc(F)cc4n2CNC(=O)OCCS*)C(=O)NCC3)cc1; X2 = NC(=O)c1cccc2[nH]c(-c3ccc(COC(=O)OCCS*)cc3)nc12

Molecular target: PARP (Homo sapiens, UniProt P09874)
Experiment: Enzymatic Assay 2: HT Universal Chemiluminescent PARP Assay of cleaved compounds;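 further: PARP reaction with activated DNA run 1 h at room temperature, product detected via streptavidin-HRP and luminescence endpoint reading on a plate reader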
Conditions: read-out: IC50 Enzymatic Assay 2; Examples cleaved per Example A (crude cleavage solution); R^8H starting materials as such

Chain of PARP (P09874 whole entry): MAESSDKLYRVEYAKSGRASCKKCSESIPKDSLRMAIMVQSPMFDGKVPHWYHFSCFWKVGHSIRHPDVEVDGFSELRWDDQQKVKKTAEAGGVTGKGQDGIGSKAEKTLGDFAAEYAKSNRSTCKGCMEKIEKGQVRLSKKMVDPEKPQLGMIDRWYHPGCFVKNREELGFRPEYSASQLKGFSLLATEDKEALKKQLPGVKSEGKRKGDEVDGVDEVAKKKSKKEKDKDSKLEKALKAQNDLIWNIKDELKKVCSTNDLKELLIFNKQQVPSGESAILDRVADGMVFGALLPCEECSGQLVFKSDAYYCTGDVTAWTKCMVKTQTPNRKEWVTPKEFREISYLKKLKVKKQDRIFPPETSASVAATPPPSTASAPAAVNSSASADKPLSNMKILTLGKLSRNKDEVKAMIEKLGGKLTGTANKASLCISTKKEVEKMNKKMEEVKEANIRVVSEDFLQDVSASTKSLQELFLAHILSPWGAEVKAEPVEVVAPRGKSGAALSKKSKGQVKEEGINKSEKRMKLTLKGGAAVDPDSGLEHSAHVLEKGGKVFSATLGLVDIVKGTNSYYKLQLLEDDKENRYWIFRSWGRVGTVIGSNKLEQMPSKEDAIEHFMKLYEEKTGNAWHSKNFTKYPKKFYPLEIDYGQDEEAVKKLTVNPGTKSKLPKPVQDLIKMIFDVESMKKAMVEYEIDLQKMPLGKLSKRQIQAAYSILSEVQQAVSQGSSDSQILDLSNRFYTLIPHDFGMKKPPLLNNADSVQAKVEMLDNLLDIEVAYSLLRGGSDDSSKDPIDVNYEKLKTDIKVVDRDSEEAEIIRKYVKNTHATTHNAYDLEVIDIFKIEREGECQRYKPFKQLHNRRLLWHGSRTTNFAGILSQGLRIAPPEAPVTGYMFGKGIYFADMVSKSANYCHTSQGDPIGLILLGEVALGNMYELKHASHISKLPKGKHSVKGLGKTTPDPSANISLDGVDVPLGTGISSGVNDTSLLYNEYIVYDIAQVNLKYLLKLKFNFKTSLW

| SMILES | IC50 [nM] |
| --- | --- |
| CC(C)C[C@H](NC(=O)[C@H](Cc1ccc(O)cc1)NC(=O)[C@H](C)NC(=O)[C@H](CCCNC(=N)N)NC(=O)[C@H](Cc1c[nH]c2ccccc12)NC(=O)[C@@H]1CCCN1C(=O)[C@H](CC(N)=O)NC(=O)[C@H](CCC(N)=O)NC(=O)[C@H](CC(=O)O)NC(=O)[C@H](CC(=O)O)NC(=O)[C@H](C)N)C(=O)N[C@@H](CC(=O)O)C(=O)N[C@@H](CC(C)C)C(=O)N[C@@H](CC(C)C)C(=O)N[C@@H](Cc1ccccc1)C(=O)N1CCC[C@H]1C(=O)N[C@H](C(=O)N[C@@H](CC(=O)O)C(=O)N[C@H](C(=O)N[C@@H](CC(C)C)C(=O)N[C@@H](CC(C)C)C(=O)N[C@@H](CC(C)C)C(=O)N[C@@H](CC(=O)O)C(=O)N[C@@H](CC(C)C)C(=O)N[C@@H](CC(C)C)C(=O)N[C@@H](Cc1c[nH]c2ccccc12)C(=O)N[C@@H](CSSCCOC(=O)OCc1ccc(-c2nc3c(C(N)=O)cccc3[nH]2)cc1)C(=O)NCC(=O)O)[C@@H](C)O)[C@@H](C)O [Example 1] | 12.1 |
| CC[C@H](C)[C@H](NC(=O)[C@@H]1CCCN1C(=O)[C@H](CC(N)=O)NC(=O)[C@H](CCC(N)=O)NC(=O)[C@H](CCC(=O)O)NC(=O)[C@H](C)N)C(=O)N[C@@H](Cc1ccc(O)cc1)C(=O)N[C@@H](Cc1c[nH]c2ccccc12)C(=O)N[C@@H](C)C(=O)N[C@@H](CCCNC(=N)N)C(=O)N[C@@H](Cc1ccc(O)cc1)C(=O)N[C@@H](C)C(=O)N[C@@H](CC(=O)O)C(=O)N[C@@H](Cc1c[nH]c2ccccc12)C(=O)N[C@@H](CC(C)C)C(=O)N[C@@H](Cc1ccccc1)C(=O)N[C@H](C(=O)N[C@H](C(=O)N1CCC[C@H]1C(=O)N[C@@H](CC(C)C)C(=O)N[C@@H](CC(C)C)C(=O)N[C@@H](CC(C)C)C(=O)N[C@@H](CC(C)C)C(=O)N[C@@H](CC(=O)O)C(=O)N[C@@H](CC(C)C)C(=O)N[C@@H](C)C(=O)N[C@@H](CC(C)C)C(=O)N[C@@H](CC(C)C)C(=O)N[C@H](C(=O)N[C@@H](CC(=O)O)C(=O)N[C@@H](C)C(=O)N[C@@H](CC(=O)O)C(=O)N[C@@H](CCC(=O)O)C(=O)N[C@@H](CSSCCOC(=O)OCc1ccc(-c2nc3c(C(N)=O)cccc3[nH]2)cc1)C(=O)NCC(=O)O)C(C)C)[C@@H](C)O)[C@@H](C)O [Example 2] (H-AEQNPIYWARYADWLFTTPLLLLDLALLVDADEC(X2)G-OH; N-terminus and C-terminus assumed) | 9.52 |
| CC(C)C[C@H](NC(=O)[C@H](Cc1ccc(O)cc1)NC(=O)[C@H](C)NC(=O)[C@H](CCCNC(=N)N)NC(=O)[C@H](Cc1c[nH]c2ccccc12)NC(=O)[C@@H]1CCCN1C(=O)[C@H](CC(N)=O)NC(=O)[C@H](CCC(N)=O)NC(=O)[C@H](CC(=O)O)NC(=O)[C@H](CC(=O)O)NC(=O)[C@H](C)N)C(=O)N[C@@H](CC(=O)O)C(=O)N[C@@H](CC(C)C)C(=O)N[C@@H](CC(C)C)C(=O)N[C@@H](Cc1ccccc1)C(=O)N1CCC[C@H]1C(=O)N[C@H](C(=O)N[C@@H](CC(=O)O)C(=O)N[C@H](C(=O)N[C@@H](CC(C)C)C(=O)N[C@@H](CC(C)C)C(=O)N[C@@H](CC(C)C)C(=O)N[C@@H](CC(=O)O)C(=O)N[C@@H](CC(C)C)C(=O)N[C@@H](CC(C)C)C(=O)N[C@@H](Cc1c[nH]c2ccccc12)C(=O)N[C@@H](CSSC1(COC(=O)N(C)Cc2ccc(-c3[nH]c4cc(F)cc5c4c3CCNC5=O)cc2)CCC1)C(=O)NCC(=O)O)[C@@H](C)O)[C@@H](C)O [Example 44] | 1.5 |
| CC[C@H](C)[C@H](NC(=O)[C@@H]1CCCN1C(=O)[C@H](CC(N)=O)NC(=O)[C@H](CCC(N)=O)NC(=O)[C@H](CCC(=O)O)NC(=O)[C@H](C)N)C(=O)N[C@@H](Cc1ccc(O)cc1)C(=O)N[C@@H](Cc1c[nH]c2ccccc12)C(=O)N[C@@H](C)C(=O)N[C@@H](CCCNC(=N)N)C(=O)N[C@@H](Cc1ccc(O)cc1)C(=O)N[C@@H](C)C(=O)N[C@@H](CC(=O)O)C(=O)N[C@@H](Cc1c[nH]c2ccccc12)C(=O)N[C@@H](CC(C)C)C(=O)N[C@@H](Cc1ccccc1)C(=O)N[C@H](C(=O)N[C@H](C(=O)N1CCC[C@H]1C(=O)N[C@@H](CC(C)C)C(=O)N[C@@H](CC(C)C)C(=O)N[C@@H](CC(C)C)C(=O)N[C@@H](CC(C)C)C(=O)N[C@@H](CC(=O)O)C(=O)N[C@@H](CC(C)C)C(=O)N[C@@H](C)C(=O)N[C@@H](CC(C)C)C(=O)N[C@@H](CC(C)C)C(=O)N[C@H](C(=O)N[C@@H](CC(=O)O)C(=O)N[C@@H](C)C(=O)N[C@@H](CC(=O)O)C(=O)N[C@@H](CCC(=O)O)C(=O)N[C@@H](CSS[C@H](C)COC(=O)N1CCC[C@]1(C)c1nc2c(C(N)=O)cccc2[nH]1)C(=O)NCC(=O)O)C(C)C)[C@@H](C)O)[C@@H](C)O [Example 54] (H-AEQNPIYWARYADWLFTTPLLLLDLALLVDADEC(X16)G-OH; N-terminus and C-terminus assumed) | 0.6 |
| CC(C)C[C@H](NC(=O)[C@H](Cc1ccc(O)cc1)NC(=O)[C@H](C)NC(=O)[C@H](CCCNC(=N)N)NC(=O)[C@H](Cc1c[nH]c2ccccc12)NC(=O)[C@@H]1CCCN1C(=O)[C@H](CC(N)=O)NC(=O)[C@H](CCC(N)=O)NC(=O)[C@H](CC(=O)O)NC(=O)[C@H](CC(=O)O)NC(=O)[C@H](C)N)C(=O)N[C@@H](CC(=O)O)C(=O)N[C@@H](CC(C)C)C(=O)N[C@@H](CC(C)C)C(=O)N[C@@H](Cc1ccccc1)C(=O)N1CCC[C@H]1C(=O)N[C@H](C(=O)N[C@@H](CC(=O)O)C(=O)N[C@H](C(=O)N[C@@H](CC(C)C)C(=O)N[C@@H](CC(C)C)C(=O)N[C@@H](CC(C)C)C(=O)N[C@@H](CC(=O)O)C(=O)N[C@@H](CC(C)C)C(=O)N[C@@H](CC(C)C)C(=O)N[C@@H](Cc1c[nH]c2ccccc12)C(=O)N[C@@H](CC(=O)O)C(=O)N[C@@H](C)C(=O)N[C@@H](CC(=O)O)C(=O)N[C@@H](CCC(=O)O)C(=O)N[C@@H](CSS[C@@H](C)COC(=O)N1CCC[C@]1(C)c1nc2c(C(N)=O)cccc2[nH]1)C(=O)NCC(=O)O)[C@@H](C)O)[C@@H](C)O [Example 52] | 1.1 |
| CC[C@H](C)[C@H](NC(=O)[C@@H]1CCCN1C(=O)[C@H](CC(N)=O)NC(=O)[C@H](CCC(N)=O)NC(=O)[C@H](CCC(=O)O)NC(=O)[C@H](C)N)C(=O)N[C@@H](Cc1ccc(O)cc1)C(=O)N[C@@H](Cc1c[nH]c2ccccc12)C(=O)N[C@@H](C)C(=O)N[C@@H](CCCNC(=N)N)C(=O)N[C@@H](Cc1ccc(O)cc1)C(=O)N[C@@H](C)C(=O)N[C@@H](CC(=O)O)C(=O)N[C@@H](Cc1c[nH]c2ccccc12)C(=O)N[C@@H](CC(C)C)C(=O)N[C@@H](Cc1ccccc1)C(=O)N[C@H](C(=O)N[C@H](C(=O)N1CCC[C@H]1C(=O)N[C@@H](CC(C)C)C(=O)N[C@@H](CC(C)C)C(=O)N[C@@H](CC(C)C)C(=O)N[C@@H](CC(C)C)C(=O)N[C@@H](CC(=O)O)C(=O)N[C@@H](CC(C)C)C(=O)N[C@@H](C)C(=O)N[C@@H](CC(C)C)C(=O)N[C@@H](CC(C)C)C(=O)N[C@H](C(=O)N[C@@H](CC(=O)O)C(=O)N[C@@H](C)C(=O)N[C@@H](CC(=O)O)C(=O)N[C@@H](CCC(=O)O)C(=O)N[C@@H](CSSCCOC(=O)NCn1c(-c2ccc(CNC)cc2)c2c3c(cc(F)cc31)C(=O)NCC2)C(=O)NCC(=O)O)C(C)C)[C@@H](C)O)[C@@H](C)O [Example 33] (H-AEQNPIYWARYADWLFTTPLLLLDLALLVDADEC(X18)G-OH; N-terminus and C-terminus assumed) | 2.3 |
| CC[C@H](C)[C@H](NC(=O)[C@@H]1CCCN1C(=O)[C@H](CC(N)=O)NC(=O)[C@H](CCC(N)=O)NC(=O)[C@H](CCC(=O)O)NC(=O)[C@H](C)N)C(=O)N[C@@H](Cc1ccc(O)cc1)C(=O)N[C@@H](Cc1c[nH]c2ccccc12)C(=O)N[C@@H](C)C(=O)N[C@@H](CCCNC(=N)N)C(=O)N[C@@H](Cc1ccc(O)cc1)C(=O)N[C@@H](C)C(=O)N[C@@H](CC(=O)O)C(=O)N[C@@H](Cc1c[nH]c2ccccc12)C(=O)N[C@@H](CC(C)C)C(=O)N[C@@H](Cc1ccccc1)C(=O)N[C@H](C(=O)N[C@H](C(=O)N1CCC[C@H]1C(=O)N[C@@H](CC(C)C)C(=O)N[C@@H](CC(C)C)C(=O)N[C@@H](CC(C)C)C(=O)N[C@@H](CC(C)C)C(=O)N[C@@H](CC(=O)O)C(=O)N[C@@H](CC(C)C)C(=O)N[C@@H](C)C(=O)N[C@@H](CC(C)C)C(=O)N[C@@H](CC(C)C)C(=O)N[C@H](C(=O)N[C@@H](CC(=O)O)C(=O)N[C@@H](C)C(=O)N[C@@H](CC(=O)O)C(=O)N[C@@H](CCC(=O)O)C(=O)N[C@@H](CSSc1ccc(COC(=O)N(C)Cc2ccc(-c3[nH]c4cc(F)cc5c4c3CCNC5=O)cc2)cc1C)C(=O)NCC(=O)O)C(C)C)[C@@H](C)O)[C@@H](C)O [Example 29] (H-AEQNPIYWARYADWLFTTPLLLLDLALLVDADEC(X10)G-OH; N-terminus and C-terminus assumed) | 6.4 |
| CC(C)C[C@H](NC(=O)[C@H](Cc1ccc(O)cc1)NC(=O)[C@H](C)NC(=O)[C@H](CCCNC(=N)N)NC(=O)[C@H](Cc1c[nH]c2ccccc12)NC(=O)[C@@H]1CCCN1C(=O)[C@H](CC(N)=O)NC(=O)[C@H](CCC(N)=O)NC(=O)[C@H](CC(=O)O)NC(=O)[C@H](CC(=O)O)NC(=O)[C@H](C)N)C(=O)N[C@@H](CC(=O)O)C(=O)N[C@@H](CC(C)C)C(=O)N[C@@H](CC(C)C)C(=O)N[C@@H](Cc1ccccc1)C(=O)N1CCC[C@H]1C(=O)N[C@H](C(=O)N[C@@H](CC(=O)O)C(=O)N[C@H](C(=O)N[C@@H](CC(C)C)C(=O)N[C@@H](CC(C)C)C(=O)N[C@@H](CC(C)C)C(=O)N[C@@H](CC(=O)O)C(=O)N[C@@H](CC(C)C)C(=O)N[C@@H](CC(C)C)C(=O)N[C@@H](Cc1c[nH]c2ccccc12)C(=O)N[C@@H](CC(=O)O)C(=O)N[C@@H](C)C(=O)N[C@@H](CC(=O)O)C(=O)N[C@@H](CCC(=O)O)C(=O)N[C@@H](CSS[C@H](C)COC(=O)N1CCC[C@@H](c2ccc(-n3cc4cccc(C(N)=O)c4n3)cc2)C1)C(=O)NCC(=O)O)[C@@H](C)O)[C@@H](C)O [Example 45] | 3.2 |
